Data: patent US9757393B2 (priority 2015, dated 2017)

Columns and labels:
phospho-AMPK (Thr172) = assay: Western blotting of phospho-AMPK (Thr172) in liver tissue and skeletal muscle; format: in vivo, C57BL/6J mice; conditions: HFD-fed mice
Procedure: (§1) Experimental Animals: the experiments are conducted under the guidelines of the Institutional Animal Care and Use Committee of Central Taiwan University of Science and Technology. As previously described, four-week-old male C57BL/6J mice (n=63) is purchased from the National Laboratory Animal Breeding and Research Center, Ministry of Science and Technology. After 1-week of acclimatization, mice are designed to initiate the study, and the study lasts for 12 weeks. […] The CON group and high-fat control (HF) group are given with vehicle only. The low-fat diet consisted of fat 10%, whereas the high-fat diet (HFD) consisted of fat 45% (of total energy, % kcal). The compositions of the experimental diets are shown as described. At the end of the study, food is derived from the animals (from 10 p.m. to 10 a.m.). On the next day, the mice are sacrificed, and blood and tissue are collected for analysis. Livers, skeletal muscles, and white adipose tissues (WATs) (including epididymal, mesenteric and retroperitoneal WAT) are excised and weighed, and then immediately stored in a freezer at −80° C. Heparin (30 units/mL) (Sigma) is added to blood samples. Plasma samples are collected by centrifugation at 1600 g for 15 min at 4° C. within 30 min, and plasma is obtained for insulin and leptin level analysis.
(§2) Protein extractions and immunoblots for the determination of membrane GLUT4, phospho-AMPK (Thr172), and phospho-Akt (Ser 473) proteins are carried out on frozen skeletal muscle and liver tissue from mice, which follows a previous paper. Additionally, membrane GLUT4 is carried out on frozen skeletal muscle from mice, and the total membrane fractions are collected with buffer and centrifuged as a previously described. The protein contents of membrane GLUT4, phospho-AMPK, phospho-Akt, total AMPK, and total Akt are detected by western blotting. Western blotting has been determined as described elsewhere. Subsequently, antibodies are detected using horseradish peroxidase linked to a goat anti-IgG rabbit secondary antibody and visualized using an ECL system. Membrane GLUT4, structural proteins GAPDH and β-actin are purchased from Santa Cruz Biotechnology (Santa Cruz, Calif., USA); phospho-AMPK was obtained from Abcam Inc. (Cambridge, Mass., USA); phospho-Akt, total AMPK, and total Akt are from Cell Signaling Technology, Inc. (Danver Mass., USA); the BCA protein assay kit is from Thermo Scientific (Rockford, Ill., USA); and the ECL reagent kit is from GE Healthcare BioSciences (Buckinghamshire, UK). The secondary antibody antirabbit is from Jackson ImmunoResearch Laboratories, Inc. (West Grove, Pa., USA). The density blotting is analyzed using Alpha Easy FC software (Alpha Innotech Corp., Randburg, South Africa). Structural proteins GAPDH and β-actin are obtained by stripping the nitrocellulose membrane proteins of liver and skeletal muscle, respectively.

HFD-fed C57BL/6J mice = assay: Hepatic lipid in HFD-fed mice; format: in vivo; conditions: oral gavage daily for 4 weeks
Procedure: as §1
Blood Lipid and Hepatic Lipid. Hepatic lipids are extracted as previously described. Liver sample (0.375 g) is homogenized with 1 mL of distilled water for 5 min for the hepatic lipid extraction and analyzed using a triglycerides kit as used for serum lipids.

PPARα mRNA = assay: Semiquantitative RT-PCR, liver tissue: PPARα; format: in vivo, C57BL/6J mice; conditions: HFD-fed mice
Procedure: as §1
(§3) The experiment is performed as in a previously described protocol. Total RNA from the liver tissue is isolated with a Trizol reagent (Molecular Research Center, Inc., Cincinnati, Ohio, USA) according to the manufacturer's directions. Total RNA (1 μg) is reverse transcribed to cDNA with 5 μL of Moloney murine leukemia virus reverse transcriptase (Epicenter, Madison, Wis., USA) as a previously described protocol. […] The relative density of the band is evaluated using AlphaDigiDoc 1201 software (Alpha Innotech Co., San Leandro, Calif., USA). All of the measured PCR products are normalized to the amount of cDNA of GAPDH in each sample.

SREBP2 mRNA = assay: Semiquantitative RT-PCR, liver tissue: SREBP2; format: in vivo, C57BL/6J mice; conditions: HFD-fed mice
Procedure: as §1, §3

apo A-I mRNA = assay: Semiquantitative RT-PCR, liver tissue: apo A-I; format: in vivo, C57BL/6J mice; conditions: HFD-fed mice
Procedure: as §1, §3

[1] = system: phospho-Akt (Ser 473)/total Akt; assay: Western blotting of phospho-Akt (Ser 473)/total Akt; format: in vivo, C57BL/6J mice; conditions: HFD-fed mice, vs HF mice
Procedure: as §1
Protein extractions and immunoblots for the determination of membrane GLUT4, phospho-AMPK (Thr172), and phospho-Akt (Ser 473) proteins are carried out on frozen skeletal muscle and liver tissue from mice, which follows a previous paper. […] The protein contents of membrane GLUT4, phospho-AMPK, phospho-Akt, total AMPK, and total Akt are detected by western blotting. Western blotting has been determined as described elsewhere. Subsequently, antibodies are detected using horseradish peroxidase linked to a goat anti-IgG rabbit secondary antibody and visualized using an ECL system. […] The density blotting is analyzed using Alpha Easy FC software (Alpha Innotech Corp., Randburg, South Africa). […]

membrane GLUT4 = assay: Western blotting of membrane GLUT4 in skeletal muscle; format: in vivo, C57BL/6J mice; conditions: HFD-fed mice; for muscular membrane GLUT4 protein contents: vs HF group
Procedure: as §1, §2

SREBP1c mRNA = assay: Semiquantitative RT-PCR, liver tissue: SREBP1c; format: in vivo, C57BL/6J mice; conditions: HFD-fed mice
Procedure: as §1, §3

CC(C)[C@@H](C)C=C[C@@H](C)[C@H]1CC[C@H]2C3=CCC4C[C@@H](O)CC[C@]4(C)C3=CC[C@]12C (stereo partly drawn) [ergostatrien-3β-ol, ergosta-7,9(11),22-trien-3β-ol]
protein contents of phospho-AMPK (phospho-AMPK (Thr172); liver tissue, 10 mg/kg/day): significantly increased | protein contents of phospho-AMPK (phospho-AMPK (Thr172); liver tissue, 20 mg/kg/day): significantly increased | protein contents of phospho-AMPK (phospho-AMPK (Thr172); liver tissue, 40 mg/kg/day): significantly increased | protein contents of phospho-AMPK (phospho-AMPK (Thr172); skeletal muscle, 10 mg/kg/day): significantly increased | protein contents of phospho-AMPK (phospho-AMPK (Thr172); skeletal muscle, 20 mg/kg/day): significantly increased | protein contents of phospho-AMPK (phospho-AMPK (Thr172); skeletal muscle, 40 mg/kg/day): significantly increased | Liver Lipids total lipid (HFD-fed C57BL/6J mice; 10 mg/kg/day): 72.4 ± 3.7 mg/g | Liver Lipids triacylglycerol (HFD-fed C57BL/6J mice; 10 mg/kg/day): 57.3 ± 5.5 µmol/g | Liver Lipids total lipid (HFD-fed C57BL/6J mice; 20 mg/kg/day): 68.0 ± 4.5 mg/g | Liver Lipids triacylglycerol (HFD-fed C57BL/6J mice; 20 mg/kg/day): 44.5 ± 4.7 µmol/g | Liver Lipids total lipid (HFD-fed C57BL/6J mice; 40 mg/kg/day): 65.4 ± 4.2 mg/g | Liver Lipids triacylglycerol (HFD-fed C57BL/6J mice; 40 mg/kg/day): 43.7 ± 6.6 µmol/g | mRNA level of PPARα (PPARα mRNA; 10 mg/kg/day): increase | mRNA level of PPARα (PPARα mRNA; 20 mg/kg/day): increase | mRNA level of PPARα (PPARα mRNA; 40 mg/kg/day): increase | mRNA level of SREBP2 (SREBP2 mRNA; 10 mg/kg/day): decreased | mRNA level of SREBP2 (SREBP2 mRNA; 20 mg/kg/day): decreased | mRNA level of SREBP2 (SREBP2 mRNA; 40 mg/kg/day): decreased | mRNA levels of apolipoprotein A-I (apo A-I) (apo A-I mRNA; 10 mg/kg/day): increased | mRNA levels of apolipoprotein A-I (apo A-I) (apo A-I mRNA; 20 mg/kg/day): increased | mRNA levels of apolipoprotein A-I (apo A-I) (apo A-I mRNA; 40 mg/kg/day): increased | levels of phospho-Akt/total Akt ([1]; 10 mg/kg/day): higher | levels of phospho-Akt/total Akt ([1]; 20 mg/kg/day): higher | levels of phospho-Akt/total Akt ([1]; 40 mg/kg/day): higher | enhancement of muscular membrane GLUT4 protein (membrane GLUT4; 40 mg/kg/day): approximately 2.7 fold | muscular membrane GLUT4 protein contents (membrane GLUT4; 10 mg/kg/day): increased | muscular membrane GLUT4 protein contents (membrane GLUT4; 20 mg/kg/day): increased | muscular membrane GLUT4 protein contents (membrane GLUT4; 40 mg/kg/day): increased | mRNA level of SREBP1c (SREBP1c mRNA; 10 mg/kg/day): decreased | mRNA level of SREBP1c (SREBP1c mRNA; 20 mg/kg/day): decreased | mRNA level of SREBP1c (SREBP1c mRNA; 40 mg/kg/day): decreased
